Article PMC12682947, “Identification of New KCNT1‐Epilepsy Drugs by In Silico, Cell, and Drosophila Modeling” (Annals of Neurology, 2025)
Counter-ions that a name gives are not always drawn.

What was measured:
[1] = test system: Drosophila KCNT1 mutant line R398Q; experiment: Bang-sensitive behavioral seizure assay, Drosophila KCNT1 mutant line R398Q; format: in vivo, Drosophila melanogaster; conditions: drug in food
Text: (§1) The Drosophila melanogaster lines carrying the WT human KCNT1 transgene (NM_020822_3) or KCNT1 mutant G288S, R398Q or R928C transgene placed downstream of the yeast UAS promoter, have been described previously.[11] WT or mutant human UAS‐KCNT1 flies were crossed to flies expressing the GAL4 transcriptional activator under the control of the GAD1 promoter (GABAergic driver, Bloomington stock number 51630 P2) to drive expression of KCNT1 in GABAergic neurons, involved in neuronal inhibition.[11]
(§2) The bang‐sensitive behavioral assay (also known as the banging assay) was used to test for the presence of a seizure phenotype in Drosophila.[11], [30] Experiments were performed and scored, as previously described,[11] with a minimum of 50 Drosophila tested for each genotype and drug concentration.
(§3) Four drugs were selected for in vivo analysis to determine their effects on the seizure phenotypes in transgenic Drosophila lines with human mutant KCNT1 channels. […]
(§4) In all experiments, experimenters were not blinded to variants or treatments, nor were samples randomly assigned to groups. Sample sizes were not calculated in advance and no data were excluded from the analysis. Data were analyzed using GraphPad Prism 9 software (San Diego, CA, USA). […] All data passed normality and lognormality Shapiro–Wilk tests, determined by GraphPad Prism 9. […]

[2] = test system: Drosophila KCNT1 mutant line R928C; experiment: Bang-sensitive behavioral seizure assay, Drosophila KCNT1 mutant line R928C; format: in vivo, Drosophila melanogaster; conditions: drug in food
Text: as §1, §2, §3, §4

hERG potassium channels = conditions: read-out: IC50 for inhibition of hERG potassium channels; cited from earlier work
[3] = test system: Drosophila KCNT1 mutant line G288S; experiment: Bang-sensitive behavioral seizure assay, Drosophila KCNT1 mutant line G288S; format: in vivo, Drosophila melanogaster; conditions: drug in food
Text: as §1, §2, §3, §4

[4] = cited from earlier work

Compound | reduction of the seizure phenotype [1] | reduction of the seizure phenotype [2] [%] | IC50 (hERG potassium channels) [µM] | reduction of the seizure phenotype [3] | mean plasma concentration ([4]; 900 mg/day (approximately 12 mg/kg for a 75 kg adult), ref Berry et al, 1983) [nM] | tolerability in humans ([4]; 900 mg/day) | mean circulating plasma levels ([4]; patients with osteoarthritis) [µM]
Cc1c(O)cccc1C(=O)N[C@@H](CSc1ccccc1)[C@H](O)CN1C[C@H]2CCCC[C@H]2C[C@H]1C(=O)NC(C)(C)C [nelfinavir mesylate] | 50% | 50 | 11.5 | 50% |  |  | 
O=C(OCCN1CCN(c2cccc(C(F)(F)F)c2)CC1)c1ccccc1Nc1ccnc2cc(C(F)(F)F)ccc12 [antrafenine] | at least 50% | 25 |  | at least 50% | 202 | well tolerated | 0.3
